Results published in patent US4439426A, “Semisynthetic macrolidic antibiotics, intermediate compounds for their preparation and related pharmaceutical compositions containing them” (priority 1981, dated 1984).
≈ marks a conversion by molar mass, not a printed value. Read-outs that look alike come from different tables or passages of the source.

Tests used:
[1] = tested on: Streptococcus pneumoniae ATCC 6303 LRP 35; assay: Minimum bactericidal concentration (MBC); assay type: cell-based
Text: (§1) the bacterial power, expressed as the minimum bactericidal power (MBC) against some Gram positive aerobic stocks (table 5).

[2] = tested on: Streptococcus pyogenes ATCC 8668 LRP 34; assay: Minimum bactericidal concentration (MBC); assay type: cell-based
Text: as §1

[3] = tested on: Staphylococcus aureus ATCC 6538 P LRP 39; assay: Minimum bactericidal concentration (MBC); assay type: cell-based
Text: as §1

[4] = tested on: Corynebacterium diphteriae LRP 24; assay: Minimum bactericidal concentration (MBC); assay type: cell-based
Text: as §1

[5] = tested on: Streptococcus faecalis subs. zymogenes LRP 61; assay: Minimum bactericidal concentration (MBC); assay type: cell-based
Text: as §1

[6] = tested on: Bacteroides fragilis ATCC 23745 LRP 205; assay: Bacteriostatic power in solid medium (MIC); assay type: cell-based; conditions: Bacteroides fragilis, ATCC23745, read-out: Minimum inhibiting concentration
Outline: (§2)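 MIC read-out; bacteriostatic endpoint. Panel mixes aerobes/anaerobes, Gram+ and Gram−.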

[7] = tested on: Streptococcus faecalis subsp. zymogenes ATCC 12958 LRP 61; assay: Bacteriostatic power in solid medium (MIC); assay type: cell-based; conditions: Enterococcus faecalis, ATCC12958, read-out: Minimum inhibiting concentration
Outline: as §2

[8] = tested on: Streptococcus pneumoniae ATCC 6303 LRP 53; assay: Bacteriostatic power in solid medium (MIC); assay type: cell-based; conditions: Streptococcus pneumoniae, ATCC6303, read-out: Minimum inhibiting concentration
Outline: as §2

[9] = tested on: Acholeplasma laidlawii ATCC 23206 LRP 204; assay: Bacteriostatic power in solid medium (MIC); assay type: cell-based; conditions: Acholeplasma laidlawii, ATCC23206, read-out: Minimum inhibiting concentration
Outline: as §2

[10] = tested on: Streptococcus pneumoniae ATCC 6303 LRP 35; assay: Bacteriostatic power in solid medium (MIC); assay type: cell-based; conditions: Streptococcus pneumoniae, ATCC6303, read-out: Minimum inhibiting concentration
Outline: as §2

[11] = tested on: Neisseria gonorrhoeae ATCC 19424 LRP 214; assay: Bacteriostatic power in solid medium (MIC); assay type: cell-based; conditions: Neisseria gonorrhoeae, ATCC19424, read-out: Minimum inhibiting concentration
Outline: as §2

[12] = tested on: Pseudomonas aeruginosa LRP 9; assay: Bacteriostatic power in solid medium (MIC); assay type: cell-based; conditions: Pseudomonas aeruginosa, LRP9, read-out: Minimum inhibiting concentration
Outline: as §2

[13] = tested on: Mycoplasma hominis I ATCC 14027 LRP 211; assay: Bacteriostatic power in solid medium (MIC); assay type: cell-based; conditions: Metamycoplasma hominis, ATCC14027, read-out: Minimum inhibiting concentration
Outline: as §2

Escherichia coli LRP 50 = assay: Bacteriostatic power in solid medium (MIC); assay type: cell-based; conditions: Escherichia coli, LRP50, read-out: Minimum inhibiting concentration
Outline: as §2

[14] = tested on: Micrococcus luteus ATCC 9341 LRP 6; assay: Bacteriostatic power in solid medium (MIC); assay type: cell-based; conditions: Micrococcus luteus, ATCC9341, read-out: Minimum inhibiting concentration
Outline: as §2

[15] = tested on: Proteus vulgaris ATCC 6380 LRP 13; assay: Bacteriostatic power in solid medium (MIC); assay type: cell-based; conditions: Proteus vulgaris, ATCC6380, read-out: Minimum inhibiting concentration
Outline: as §2

[16] = tested on: Fusobacteriumnecrophroum ATCC 27852 LRP 210; assay: Bacteriostatic power in solid medium (MIC); assay type: cell-based; conditions: read-out: Minimum inhibiting concentration
Outline: as §2

Bacillus subtilis LRP 25 = assay: Bacteriostatic power in solid medium (MIC); assay type: cell-based; conditions: Bacillus subtilis, LRP25, read-out: Minimum inhibiting concentration
Outline: as §2

[17] = tested on: Haemophilus influenzae ATCC 19418 LRP 213; assay: Bacteriostatic power in solid medium (MIC); assay type: cell-based; conditions: Haemophilus influenzae, ATCC19418, read-out: Minimum inhibiting concentration
Outline: as §2

[18] = tested on: Staphylococcus aureus ATCC 6538P LRP 14; assay: Bacteriostatic power in solid medium (MIC); assay type: cell-based; conditions: Staphylococcus aureus, ATCC6538P, read-out: Minimum inhibiting concentration
Outline: as §2

[19] = tested on: Klelsiella pneumoniae LRP 54; assay: Bacteriostatic power in solid medium (MIC); assay type: cell-based; conditions: read-out: Minimum inhibiting concentration
Outline: as §2

[20] = tested on: Streptococcus faecalis LRP 7; assay: Bacteriostatic power in solid medium (MIC); assay type: cell-based; conditions: Enterococcus faecalis, LRP7, read-out: Minimum inhibiting concentration
Outline: as §2

[21] = tested on: Streptococcus pyogenes ATCC 8668 LRP 197; assay: Bacteriostatic power in solid medium (MIC); assay type: cell-based; conditions: Streptococcus pyogenes, ATCC8668, read-out: Minimum inhibiting concentration
Outline: as §2

[22] = tested on: Staphylococcus aureus ATCC 6538P LRP 39; assay: Bacteriostatic power in solid medium (MIC); assay type: cell-based; conditions: Staphylococcus aureus, ATCC6538P, read-out: Minimum inhibiting concentration
Outline: as §2

[23] = tested on: Streptococcus pyogenes ATCC 8668 LRP 34; assay: Bacteriostatic power in solid medium (MIC); assay type: cell-based; conditions: Streptococcus pyogenes, ATCC8668, read-out: Minimum inhibiting concentration
Outline: as §2

[24] = tested on: Micrococcus luteus ATCC 15957 LRP 193; assay: Bacteriostatic power in solid medium (MIC); assay type: cell-based; conditions: Micrococcus luteus, ATCC15957, read-out: Minimum inhibiting concentration
Outline: as §2

[25] = tested on: Streptococcus pneumoniae ATCC 6303 LRP 52; assay: Bacteriostatic power in solid medium (MIC); assay type: cell-based; conditions: Streptococcus pneumoniae, ATCC6303, read-out: Minimum inhibiting concentration
Outline: as §2

Shigella sonnei LRP 5 = assay: Bacteriostatic power in solid medium (MIC); assay type: cell-based; conditions: LRP5, read-out: Minimum inhibiting concentration
Outline: as §2

[26] = tested on: Staphylococcus aureus ATCC 14154 LRP 78; assay: Bacteriostatic power in solid medium (MIC); assay type: cell-based; conditions: Staphylococcus aureus, ATCC14154, read-out: Minimum inhibiting concentration
Outline: as §2

[27] = tested on: Corynebacterium diphteriae LRP 24; assay: Bacteriostatic power in solid medium (MIC); assay type: cell-based; conditions: Corynebacterium, LRP24, read-out: Minimum inhibiting concentration
Outline: as §2

[28] = Stability in acidic environment at 25° C. (half-life of initial microbiological activity); assay type: physicochemical; conditions: aqueous solution, read-out: t 1/2 (converted)
Method: Stability in acidic environnment at 25° C. of the novel
Note: t 1/2 represents the time for reducing to one half the initial powe
of the antibiotic determined by microbiological method through diffusion
on a plate using the test stock Microccocus luteus (Sarcina lutea) ATCC

[29] = tested on: Clostridium perfrigens ATCC 3624 LRP 206; assay: microbe, parasite or virus in culture; assay type: cell-based; conditions: ATCC3624, read-out: Minimum inhibiting concentration
Outline: as §2

Salmonella typhy LRP 8 = assay: microbe, parasite or virus in culture; assay type: cell-based; conditions: LRP8, solid medium, read-out: Minimum inhibiting concentration
Outline: as §2

**Q.** What does the source list for `CC[C@H]1OC(=O)[C@H](C)[C@@H](O[C@H]2C[C@@](C)(OC)[C@@H](O)[C@H](C)O2)[C@H](C)[C@@H](O[C@@H]2O[C@H](C)C[C@H](N(C)C)[C@H]2O)[C@](C)(O)C[C@](C)(F)C(=O)[C@H](C)[C@@H](O)[C@]1(C)O` [P-80206, (8S)-8-fluoroerythromycin A]?
**A.** MBC/MIC [1]: 4; MBC ([1]; Streptococcus pneumoniae, ATCC6303, read-out: Minimum bactericidal concentration (MBC)): 0.195 µg/mL (≈ 0.259 µM); MBC/MIC [2]: 8; MBC ([2]; Streptococcus pyogenes, ATCC8668, read-out: Minimum bactericidal concentration (MBC)): 0.78 µg/mL (≈ 1.04 µM); MBC/MIC [3]: 16; MBC ([3]; Staphylococcus aureus, ATCC6538, read-out: Minimum bactericidal concentration (MBC)): 3.12 µg/mL (≈ 4.15 µM); MBC/MIC [4]: 8; MBC ([4]; Corynebacterium, LRP24, read-out: Minimum bactericidal concentration (MBC)): 0.097 µg/mL (≈ 0.129 µM); MBC/MIC [5]: 16; MBC ([5]; Enterococcus faecalis, read-out: Minimum bactericidal concentration (MBC)): 6.25 µg/mL (≈ 8.31 µM); MIC [6]: 0.195 µg/mL (≈ 0.259 µM); MIC [7]: 0.195 µg/mL (≈ 0.259 µM); MIC [8]: 0.024 µg/mL (≈ 0.0319 µM); MIC [9]: 0.097 µg/mL (≈ 0.129 µM); MIC [10]: 0.024 µg/mL (≈ 0.0319 µM); MIC [11]: 0.049 µg/mL (≈ 0.0652 µM); MIC [12]: 25 µg/mL (≈ 33.2 µM); MIC [13]: 25 µg/mL (≈ 33.2 µM); MIC (Escherichia coli LRP 50): 12.5 µg/mL (≈ 16.6 µM); MIC [14]: 0.006 µg/mL (≈ 0.00798 µM); MIC [15]: 25 µg/mL (≈ 33.2 µM); MIC [16]: 1.56 µg/mL (≈ 2.07 µM); MIC (Bacillus subtilis LRP 25): 0.049 µg/mL (≈ 0.0652 µM); MIC [17]: 3.12 µg/mL (≈ 4.15 µM); MIC [18]: 0.097 µg/mL (≈ 0.129 µM); MIC [19]: 12.5 µg/mL (≈ 16.6 µM); MIC [20]: 0.195 µg/mL (≈ 0.259 µM); MIC [21]: 0.012 µg/mL (≈ 0.016 µM); MIC [22]: 0.097 µg/mL (≈ 0.129 µM); MIC [23]: 0.012 µg/mL (≈ 0.016 µM); MIC [24]: 25 µg/mL (≈ 33.2 µM); MIC [25]: 0.024 µg/mL (≈ 0.0319 µM); MIC (Shigella sonnei LRP 5): 25 µg/mL (≈ 33.2 µM); MIC [26]: 25 µg/mL (≈ 33.2 µM); MIC [27]: 0.012 µg/mL (≈ 0.016 µM); half-life ([28]; pH 2.0, 25° C.): 9 h; half-life ([28]; pH 3.0, 25° C.): 82.5 h; MIC [29]: 0.78 µg/mL (≈ 1.04 µM); MIC (Salmonella typhy LRP 8): 12.5 µg/mL (≈ 16.6 µM)
